From US11191742B2, “Methods of treating neurodegenerative disorders in a particular population” (ALZHEON, INC., priority 2015, dated 2021)

Columns and labels:
Type in all cases: in vivo, human
[1] = Phase I single dose study, plasma tramiprosate pharmacokinetics; conditions: single dose of oral ALZ-801
Description: (§1) To advance the clinical development of ALZ-801 into Phase 3, we have completed single dose and 14-day multiple ascending dose Phase 1 bridging studies in healthy elderly volunteers to evaluate safety, tolerability and pharmacokinetics. […] The longer half-life observed in the multiple ascending dose studies was obtained after 14 days of BID dosing and was due to the fact that there were more extended blood sampling time points taken in that study as compared to the single dose study.

[2] = ALZ-801 immediate release tablet, pharmacokinetics and GI tolerability fed vs fasted
[3] = Phase I 14-day multiple ascending dose study, plasma tramiprosate pharmacokinetics; conditions: over 14 days
Description: as §1

SMILES: CC(C)[C@H](N)C(=O)NCCCS(=O)(=O)O [ALZ-801, valyl-3-amino-1-propanesulfonic acid]
- Plasma exposure of tramiprosate compared with oral tramiprosate [1]: equivalent plasma exposure of tramiprosate
- Incidence of GI symptoms with food compared to the fasted state ([2]; ALZ-801 immediate release tablet): markedly reduced
- Difference in pharmacokinetic parameters between fed and fasted subjects ([2]; ALZ-801 tablet, single dose of 205 mg): no significant difference
- Dose proportionality and accumulation of plasma tramiprosate exposure [3]: excellent dose proportionality without accumulation or decrease in plasma exposure
